Series [1] deals with P. falciparum Dd2-HLH. As to the kind of experiment: microbe, parasite or virus in culture. The series is classed as cell-based, Plasmodium falciparum.
The test system of series [2] is P. falciparum Dd2-HLH. As to the kind of experiment: microbe, parasite or virus in culture. The series is classed as cell-based, Plasmodium falciparum. The conditions noted are these: read-out: Blood stage 72h EC50.
For series [3], the system named is P. berghei-luciferase sporozoites. As to the kind of experiment: microbe, parasite or virus in culture. The series is classed as cell-based, Plasmodium berghei.
The next series in a line: in vitro. The following applies: human.
In a further series the test system is HEK293T cells. As to the kind of experiment: Mammalian cell cytotoxicity assay, HEK293T (CellTiter-Glo, 72 h). The conditions noted are these: read-out: HEK CC50. (ATP-based viability assays read luminescence as a measure of living cells.)
The mark [4] stands for this setting: Plasmodium falciparum, DD2, 48 h, read-out: Blood stage 48h EC50.
The mark [5] stands for this setting: Plasmodium falciparum, DD2, 72 h.
Where [6] appears, read: Plasmodium berghei, HepG2, liver-stage parasites, 48 hours in culture, read-out: Liver stage 48h EC50.
[7] abbreviates: Plasmodium falciparum, DD2, Hec50, 48 h, read-out: Blood stage 48 h EC50.
[8] abbreviates: Plasmodium berghei, liver-stage parasites, 48 h in culture, read-out: Liver 48 h EC50.
[9] abbreviates: P. falciparum blood-stage parasites, 48 hours in culture, read-out: Blood stage 48h EC50.
The mark [10] stands for this setting: P. falciparum blood-stage parasites, 72 hours in culture.
Where [11] appears, read: liver-stage parasites, 48 hours in culture, read-out: Liver stage 48h EC50.

The values below come from publication PMC11145868, “Protein target similarity is positive predictor of in vitro antipathogenic activity: a drug repurposing strategy for Plasmodium falciparum” (Journal of Cheminformatics, 2024).

pEC50: −log10 of the molar value. Where a name gives a salt, the structure may show the parent alone. Read-outs that look alike come from different tables or passages of the source.

One may read the pEC50 as the negative decadic logarithm of the EC50, by convention in mol/L. With `CC[C@@]1(O)C[C@H](O[C@H]2C[C@H](N(C)C)[C@H](O[C@H]3C[C@H](O)[C@H](O[C@H]4CCC(=O)[C@H](C)O4)[C@H](C)O3)[C@H](C)O2)c2c(cc3c(c2O)C(=O)c2c(O)cccc2C3=O)[C@H]1C(=O)OC` [Aclarubicin], the pEC50 in the series on P. falciparum Dd2-HLH [1] (setting [4]) was 6.81; with P. falciparum Dd2-HLH [2] (setting [5]) it was 6.52; in series [3] (setting [6]), 5.65. Also, the CC50 in the series “in vitro” was 166 nM.
The matching figures for `CO[C@H]1/C=C\C=C(/C)C(=O)NC2=CC(=O)C(NCCN(C)C)=C(C[C@@H](C)C[C@H](OC)[C@H](O)[C@@H](C)/C=C(\C)[C@@H]1OC(N)=O)C2=O` [Alvespimycin hydrochloride]: 6.80, 6.56, 6.89 and 164 nM.
As to `C[C@@H](Oc1cc(-c2cnn(C3CCNCC3)c2)cnc1N)c1c(Cl)ccc(F)c1Cl` [Crizotinib], the negative-log EC50 (pEC50) was 6.65 in the series with P. falciparum Dd2-HLH [1] (setting [4]), 6.08 in the series with P. falciparum Dd2-HLH [2] (setting [5]) and 5.07 in series [3] (setting [6]). Besides, the CC50 in the series “in vitro” is over 9950 nM.
In the case of `C[C@@H]1C[C@@H]([C@H](O)CC2CC(=O)NC(=O)C2)C(=O)[C@@H](C)C1` [Cycloheximide], the negative-log EC50 (pEC50) in the series on P. falciparum Dd2-HLH [1] (Plasmodium falciparum, DD2, P. falciparum blood-stage parasites, 48 hours in culture, read-out: Blood stage 48h EC50) was 6.75; in the series on P. falciparum Dd2-HLH [2] (Plasmodium falciparum, DD2, P. falciparum blood-stage parasites, 72 hours in culture) it was 6.52; in series [3] (setting [6]) it was 6.96. This compound returned a CC50 in the series “in vitro” of 759 nM.
Take `O=C(CC1NCCCC1O)Cn1cnc2cc(Br)c(Cl)cc2c1=O` (stereo not drawn) [Halofuginone, reference compound]: the pEC50 in the series on P. falciparum Dd2-HLH [1] (setting [7]) is 9.00; in the series on P. falciparum Dd2-HLH [2] (setting [5]), 9.00; in series [3] (setting [8]), 7.15. In “in vitro”, this compound displayed a CC50 at 72 h of 88 nM.
Turning to `COC(=O)C[C@](O)(CCCC(C)(C)O)C(=O)O[C@@H]1C(OC)=C[C@]23CCCN2CCc2cc4c(cc2[C@H]13)OCO4` [Homoharringtonine, reference compound], the results for the pEC50 (with P. falciparum Dd2-HLH [1] (setting [7]); in the series with P. falciparum Dd2-HLH [2] (setting [5]); in series [3] (setting [8])) were 8.22, 8.15 and 7.59, respectively. In the series “in vitro”, the CC50 is 32 nM.
In the case of `CN(C)c1ccc2c(c1)Sc1cc(N(C)C)ccc1N2` [Leuco methylthioninium], the pEC50 in the series on P. falciparum Dd2-HLH [1] (read-out: Blood stage 48h EC50) is 7.02; in the series with P. falciparum Dd2-HLH [2] it was 6.68; in series [3] (read-out: Liver stage 48h EC50) it was 5.41. Further, in the series on HEK293T cells (HEK293T cells), the CC50 came to 3490 nM.
Regarding `Cc1[nH]c2ccccc2c1CCNCc1ccc(/C=C/C(=O)NO)cc1` [Panobinostat Lactate], the pEC50 was 7.70 in the series on P. falciparum Dd2-HLH [1] (setting [9]), 7.29 in the series on P. falciparum Dd2-HLH [2] (setting [10]) and 6.88 in series [3] (setting [11]). In the series on HEK293T cells (HEK293T cells), the CC50 came out at 78 nM.
In the case of `Cc1cc(-c2cc(OC(=O)c3ccccc3)ccc2Cl)cc2nnc(Nc3ccc(OCCN4CCCC4)cc3)nc12` [TG-100801], the pEC50 in the series with P. falciparum Dd2-HLH [1] (setting [9]) is 7.17; in the series on P. falciparum Dd2-HLH [2] (setting [10]), 6.69; in series [3] (setting [11]), 5.85. For the same compound, the CC50 with HEK293T cells (HEK293T cytotoxicity) is over 9950 nM.
Consider `Cc1ccc(CCCO)c(NCc2ccc3nc(NCCCN4CCOCC4)n(Cc4nc(C)ccc4O)c3c2)c1` [TMC-353121], for which the pEC50 in the series with P. falciparum Dd2-HLH [1] (setting [9]) is 6.50; with P. falciparum Dd2-HLH [2] (setting [10]), 6.19; in series [3] (setting [11]), under 5.00. The CC50 with HEK293T cells (HEK293T cells) is over 9950 nM.
Regarding `CN[C@@H]1C[C@H]2O[C@@](C)([C@@H]1OC)n1c3ccccc3c3c4c(c5c6ccccc6n2c5c31)C(=O)N[C@H]4O` [UCN-01], the pEC50 is 7.10 in the series on P. falciparum Dd2-HLH [1] (setting [9]), 6.31 in the series on P. falciparum Dd2-HLH [2] (setting [10]) and 5.67 in series [3] (setting [11]). Moreover, the CC50 in the series with HEK293T cells (HEK293T cytotoxicity) amounted to 74 nM.
As to `Cc1nc(N2CCN(Cc3ccc(F)cc3)C2=O)sc1C(=O)NCc1cccnc1` [XEN-723], the figures for the pEC50 (in the series with P. falciparum Dd2-HLH [1] (setting [9]); in the series on P. falciparum Dd2-HLH [2] (setting [10]); in series [3] (setting [11])) were 6.80, 6.48 and under 5.00, respectively. For the same compound, in the series on HEK293T cells (HEK293T cells), the CC50 turned out to be 57 nM.
In the case of `COc1cc2c(Nc3ccc(NC(=O)c4ccccc4)cc3)ncnc2cc1OCCCN1CCOCC1` [ZM447439], the pEC50 is 6.34 with P. falciparum Dd2-HLH [1] (setting [9]), 6.19 in the series on P. falciparum Dd2-HLH [2] (setting [10]) and 5.36 in series [3] (setting [11]). Further, in the series with HEK293T cells (HEK293T cytotoxicity), the CC50 was over 9950 nM.
For SN-38, the pEC50 in the series with P. falciparum Dd2-HLH [1] (setting [9]) is 6.29; in the series on P. falciparum Dd2-HLH [2] (setting [10]), 6.45; in series [3] (setting [11]), 6.00. Further, in the series on HEK293T cells (HEK293T cells), the CC50 worked out at 79 nM.
With XL-888, the values for the negative-log EC50 (pEC50) (with P. falciparum Dd2-HLH [1] (setting [9]); in the series on P. falciparum Dd2-HLH [2] (setting [10]); in series [3] (setting [11])) were 6.70, 6.46 and 7.00, respectively. In the series on HEK293T cells (HEK293T cytotoxicity), the CC50 was 47 nM.
